Reference: PubChem BioAssay AID330 (DTP/NCI, 2004)
Several values for one entry are separate records, joined by “and”; a condition that tells them apart may be missing. Equal entries are not always repeated. Inconclusive results and toxic doses are left out. How the source made its calls: active means survival T/C of 150% or more; inactive means T/C below 125% in these data.

Tested on: P388 leukemia ip, CD2F1 mice, survival T/C
Assay: NCI In Vivo Anticancer Drug Screen. Data for tumor model P388 Leukemia (intraperitoneal) in CD2F1 (CDF1) mice
Conditions: endpoint: median survival time, higher = longer survival
Method in brief: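 Mice carrying the transplanted tumor received test compound or vehicle. Survival was recorded in each group, and the value is the treated-group measurement divided by that of the vehicle-treated control group.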

[1] = dose: 50.0 mg/kg/injection, schedule: Q01DX005 (ip), vehicle: Klucel (hydroxypropylcellulose) (HPC)
[2] = dose: 100.0 mg/kg/injection, schedule: Q01DX005 (ip), vehicle: Klucel (hydroxypropylcellulose) (HPC)
[3] = dose: 25.0 mg/kg/injection, schedule: Q01DX005 (ip), vehicle: Klucel (hydroxypropylcellulose) (HPC)
[4] = dose: 200.0 mg/kg/injection, schedule: Q01DX005 (ip), vehicle: Klucel (hydroxypropylcellulose) (HPC)
[5] = dose: 60.0 mg/kg/injection, schedule: Q01DX005 (ip), vehicle: saline with Tween-80
[6] = dose: 120.0 mg/kg/injection, schedule: Q01DX005 (ip), vehicle: saline with Tween-80
[7] = dose: 240.0 mg/kg/injection, schedule: Q01DX005 (ip), vehicle: saline with Tween-80

Measured: T/C

Nc1c(-c2nc3ccc(C4=NCCN4)cc3[nH]2)[nH]c2cc(-c3nc4ccc(C5=NCCN5)cc4[nH]3)ccc12
inactive: [1] 90 % of control | [2] 90 % of control

CCCCCCCCOCC(O)CN(CCO)CCO (centres undefined)
inactive: dose: 12.5 mg/kg/injection, schedule: Q01DX009 (ip), vehicle: saline 107 % of control | dose: 25.0 mg/kg/injection, schedule: Q01DX009 (ip), vehicle: saline 92 % of control | dose: 50.0 mg/kg/injection, schedule: Q01DX009 (ip), vehicle: saline 94 % of control and 97 % of control

c1ccc(CCn2c(-c3ccncc3)nc3ccccc32)nc1
inactive: [3] 109 % of control | [1] 104 % of control | [2] 107 % of control | [4] 105 % of control

COc1cccc2c1C(=O)c1c(O)c3c(c(O)c1C2=O)CC(O)(C(C)=O)CC3OC1CC(N/C(C)=C/C(C)=O)C(O)C(C)O1 (centres undefined)
inactive: dose: 3.13 mg/kg/injection, schedule: Q04DX003 (ip), vehicle: distilled water + Tween-80 94 % of control | dose: 6.25 mg/kg/injection, schedule: Q04DX003 (ip), vehicle: distilled water + Tween-80 103 % of control | dose: 12.5 mg/kg/injection, schedule: Q04DX003 (ip), vehicle: distilled water + Tween-80 103 % of control | dose: 25.0 mg/kg/injection, schedule: Q04DX003 (ip), vehicle: distilled water + Tween-80 115 % of control and 119 % of control | dose: 200.0 mg/kg/injection, schedule: Q04DX003 (ip), vehicle: distilled water + Tween-80 102 % of control

Cc1cc(O)c(C=O)c2c1C(=O)Oc1c(CO)c(O)c3c(c1O2)C(O)OC3=O (centres undefined)
inactive: dose: 50.0 mg/kg/injection, schedule: Q01DX009 (ip), vehicle: saline with Tween-80 124 % of control

O=[N+]([O-])c1cc2no[n+]([O-])c2cc1N1CCOCC1
inactive: dose: 3.75 mg/kg/injection, schedule: Q01DX009 (ip), vehicle: saline 112 % of control and 88 % of control | dose: 7.5 mg/kg/injection, schedule: Q01DX009 (ip), vehicle: saline 101 % of control and 92 % of control | dose: 15.0 mg/kg/injection, schedule: Q01DX009 (ip), vehicle: saline 91 % of control and 97 % of control | dose: 30.0 mg/kg/injection, schedule: Q01DX009 (ip), vehicle: saline 103 % of control and 96 % of control

COc1ccc(CCN2C(=O)NC(=O)C2=O)cc1OC
inactive: [5] 97 % of control | [6] 101 % of control | [7] 97 % of control

CSc1ccccc1P(c1ccccc1)c1ccccc1SC
inactive: dose: 50.0 mg/kg/injection, schedule: Q01DX009 (ip), vehicle: Klucel (hydroxypropylcellulose) (HPC) 90 % of control | dose: 100.0 mg/kg/injection, schedule: Q01DX009 (ip), vehicle: Klucel (hydroxypropylcellulose) (HPC) 91 % of control | dose: 200.0 mg/kg/injection, schedule: Q01DX009 (ip), vehicle: Klucel (hydroxypropylcellulose) (HPC) 91 % of control

Cc1cc2nc(CC(=O)c3ccncc3)c(=O)[nH]c2cc1C
inactive: [5] 95 % of control | [6] 87 % of control

COc1cccc(CN2C(=O)NC(C)(C)C2O)c1 (centres undefined)
inactive: [5] 99 % of control | [6] 101 % of control | [7] 101 % of control

Cc1c2cnccc2c(C)c2c1c1c(C)c3cnccc3c(C)c1n2C
inactive: dose: 6.25 mg/kg/injection, schedule: Q04DX002 (ip), vehicle: distilled water + Tween-80 94 % of control | dose: 12.5 mg/kg/injection, schedule: Q04DX002 (ip), vehicle: distilled water + Tween-80 97 % of control | dose: 25.0 mg/kg/injection, schedule: Q04DX002 (ip), vehicle: distilled water + Tween-80 102 % of control | dose: 50.0 mg/kg/injection, schedule: Q04DX002 (ip), vehicle: distilled water + Tween-80 108 % of control | dose: 100.0 mg/kg/injection, schedule: Q04DX002 (ip), vehicle: distilled water + Tween-80 94 % of control

COc1ccc(S(=O)(=O)N/N=C/c2cnc[nH]2)cc1
inactive: dose: 12.5 mg/kg/injection, schedule: Q01DX005 (ip), vehicle: Klucel (hydroxypropylcellulose) (HPC) 100 % of control | [3] 97 % of control | [1] 97 % of control | [2] 88 % of control | [4] 90 % of control and 94 % of control | dose: 400.0 mg/kg/injection, schedule: Q01DX005 (ip), vehicle: Klucel (hydroxypropylcellulose) (HPC) 117 % of control

CNC(=O)n1cnc2ccccc21
inactive: dose: 100.0 mg/kg/injection, schedule: Q01DX009 (ip), vehicle: saline with Tween-80 110 % of control and 111 % of control | dose: 200.0 mg/kg/injection, schedule: Q01DX009 (ip), vehicle: saline with Tween-80 105 % of control and 118 % of control | dose: 400.0 mg/kg/injection, schedule: Q01DX009 (ip), vehicle: saline with Tween-80 120 % of control and 124 % of control
